Structures can show the parent of a compound that is named as a salt.
Target: T1, Bradykinin receptor (Cavia porcellus, UniProt O70526)
T1 construct: The ileum was removed and homogenized in buffer; from tissue; host or cells: guinea pig ileum, crude membrane suspension
T1 sequence (O70526 1-372): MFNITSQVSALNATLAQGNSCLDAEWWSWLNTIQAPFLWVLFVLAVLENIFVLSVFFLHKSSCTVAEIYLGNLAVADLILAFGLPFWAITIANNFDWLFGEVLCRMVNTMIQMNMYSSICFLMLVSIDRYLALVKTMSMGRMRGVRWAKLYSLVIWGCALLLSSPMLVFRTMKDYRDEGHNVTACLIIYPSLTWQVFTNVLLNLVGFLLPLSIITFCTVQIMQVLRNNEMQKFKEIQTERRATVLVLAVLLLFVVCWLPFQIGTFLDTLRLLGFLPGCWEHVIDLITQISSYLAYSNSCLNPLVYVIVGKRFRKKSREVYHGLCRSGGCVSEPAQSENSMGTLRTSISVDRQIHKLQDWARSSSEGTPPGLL
Assay: 3H-Bradykinin receptor binding (crude ileum membrane)
Design: species or system guinea pig (male Hartly strain)
Conditions: concentration: 1 × 10^-6 M; guinea pig ileum membrane, room temperature, 60 minutes
Description: ^3 H-Bradykinin receptor binding
(a) Crude ileum membrane preparation
Male Hartly strain guinea pigs were sacrificed by decapitation. The ileum was removed and homogenized in buffer (50 mM trimethylaminoethanesulfonic acid (TES), 1 mM 1,10-phenanthroline pH 6.8). The homogenate was centrifuged (1000× g, 20 minutes) to remove tissue clumps and the supernatant was centrifuges (100,000× g, 60 minutes) to yield a pellet. The pellet was resuspended in buffer (50 mM TES, 1 mM 1,10-phenanthroline, 140 mg/l bacitracin, 1 mM dithiothreiol, 0.1% bovine serum albumin pH 6.8) and homogenized with a glass-teflon homogenizer to yield suspension which was referred to as crude membrane suspension. The obtained membrane suspension was stored at -80° C. until use.
(b) ^3 H-Bradykinin binding to the membrane
The frozen crude membrane suspension was thawed. In binding assays, ^3 H-Bradykinin ([…]) and drug (1×10^-6 M) were incubated with 50 μl of the membrane suspension at room temperature for 60 minutes in a final volume of 250 μl. Separation of receptor-bound from free ^3 H-Bradykinin is achieved by immediate filtration under vacuum and washed three times with 5 ml of ice-cold buffer (50 mM Tris-HCl pH 7.5). Non-specific binding was defined as binding in the presence of 0.1 μM Bradykinin. The radioactivity retained on rinsed filters was determined by a liquid-scintillation counter.

inhibition at 1 µM | Structure (SMILES)
99% | CNC(=O)c1ccc(/C=C/C(=O)NCC(=O)N(C)c2ccc(Cl)c(COc3cccc4c(NCCOC)cc(C)nc34)c2Cl)cc1 [10-(9) dihydrochloride]
98% | CNC(=O)c1ccc(/C=C/C(=O)NCC(=O)N(C)c2ccc(C)c(COc3cccn4c(=O)cc(C)nc34)c2C)cc1 [90-(2), 9-[2,6-Dimethyl-3-[N-methyl-N-[4(methylcarbomoyl)cinnamoylglycyl]amino]benzyloxy]-2-methyl-4H-pyrido-[1,2-a]pyrimidin-4-one]
100% | CNC(=O)c1ccc(/C=C/C(=O)NCC(=O)N(C)c2ccc(Cl)c(COc3cccc4ccc(C)nc34)c2)cc1 [37-(5) hydrochloride]
100% | COC(=O)c1cncc(NC(=O)NCC(=O)N(C)c2ccc(Cl)c(COc3cccc4ccc(C)nc34)c2Cl)c1 [34-(3), 8-[2,6-Dichloro-3-[N-[N'-(5-methoxycarbonylpyridin-3-yl)ureidoacetyl]-N-methylamino]benzyloxy]-2-methylquinoline]
96% | Cc1ccc2cccc(OCc3c(Cl)ccc(N(C)C(=O)CNC(=O)CNc4nc5ccccc5s4)c3Cl)c2n1 [2-(14), 8-[3-[N-[2-(2-Benzothiazolylamino)acetylglycyl]-N-methylamino]-2,6-dichlorobenzyloxy]-2-methylquinoline]
95% | CNC(=O)c1ccc(/C=C/C(=O)NCC(=O)N(C)c2ccc(Cl)c(CNc3cccc4ccc(C)nc34)c2Cl)cc1 [Example 73-(4), 8-[2,6-dichloro-3-[N-methyl-N-[4-(methylcarbamoyl)cinnamoylglycyl]amino]benzylamino]-2-methylquinoline dihydrochloride]
96% | CNC(=O)c1nc2ccc(C(=O)NCC(=O)N(C)c3ccc(Cl)c(COc4cccc5ccc(C)nc45)c3Cl)cc2cc1C [25-(2) dihydrochloride]
